# Values joined by “and” are separate entries in the source; they are usually repeats but may differ in a detail not shown here. Equal entries are not always repeated.
# Tested on: 435261-313-R-J1-PDC complex spheroid viability
# Assay: Anticancer human tumor 435261-313-R-J1-PDC patient-derived colon adenocarcinoma cell line growth inhibition [GQUAD]
# Conditions: for viability, T/C: stronger effect = lower value
# Excerpt: DNA G-quadruplex Stabilizer Agents in Combinations in Complex Spheroids
# A high-throughput screen of multi-cell type tumor spheroids was designed to identify active combinations of DNA G-quadruplex stabilizer agents and targeted small molecules. Complex spheroids include a stromal component modeled by human endothelial cells (HUVEC) and fibroblasts modeled by human mesenchymal stem cells (MSCs). The concentration ranges selected for each drug and investigational agent were based upon clinically achievable concentrations if the clinical Cmax of the agent was known.
# Compounds. The drugs and investigational agents: pidnarulex (CX-5461; NSC782164), APTO-253 (NSC789042), BRACO-19 (NSC847499), peposertib (NSC802822), ceralasertib (NSC780249), elimusertib (NSC800525), camonsertib (NSC841442), AZD-1390 (NSC803789), olaparib (NSC753686), talazoparib (NSC767125), ART-558 (NSC835418), sotorasib (NSC818433), MRTX-1133 (NSC836407), SN-38 (NSC673596), topotecan (NSC609699), etoposide (NSC141540), doxorubicin (NSC123127), gemcitabine (NSC613327), 5-fluorouracil (NSC19893), paclitaxel (NSC125973), vemurafenib (NSC761431), panobinostat (NSC761190), R-306465 (JNJ-16241199; NSC773264), adavosertib (NSC754352), TP-3654 (NSC805149), carboplatin (NSC241240), KSQ-4279 (NSC840948), and staurosporine (NSC755774) were obtained from the National Cancer Institute (NCI) Developmental Therapeutics Program Chemical Repository (34). The FDA-approved anticancer drug set is available from the NCI Developmental Therapeutics Program. […] The stock solutions were prepared in dimethyl sulfoxide (DMSO, Sigma-Aldrich, St. Louis, MO, cat. D2650) at 800-fold the tested concentration and stored at -70 degrees C prior to their use. All drugs and investigational agents were tested over a range starting from a high concentration at or near the clinical Cmax and decreasing in half-log increments. If the clinical Cmax for an agent had not been determined, the highest concentration tested was 10 microM.
# 2.3 Cell Culture. All cells were maintained in an incubator at 37 degrees C and 5% CO2 with 95% humidity. The PDC lines were cultured according to standard operating procedures established by the NCI PDMR. All PDCs were thawed and cultured in Matrigel-coated flasks prepared with a working solution of 1X Ham's F-12 nutrient mix, without supplementation (Invitrogen, cat. 11765054), 100 U/mL penicillin-streptomycin (Invitrogen, cat. 15140122), and 2.5% Matrigel (Corning Inc., cat. 354248) for the first three passages. The 857933-349-R-J2-PDC line was cultured in 6C/Colon 1B media, which includes advanced DMEM/F-12 (Thermo Fisher Scientific, cat. 12634028), 10 mM HEPES (Thermo Fisher Scientific, cat. 15630080), 1X GlutaMAX supplement (Thermo Fisher Scientific, cat. 35050061), 0.1 mg/mL primocin (InvivoGen, cat. ant-pm-2), 10% defined fetal bovine serum, heat inactivated (HyClone Laboratories Inc., cat. SH30070.03HI), 50% L-WRN conditioned media (ATCC, cat. CRL-3276), 1.25 mM N-Acetyl-L-cysteine (Sigma-Aldrich, cat. A9165), 10 mM nicotinamide (Sigma-Aldrich, cat. N0636), 1X B-27 supplement (Thermo Fisher Scientific, cat. 17504044), 1X N-2 supplement (Thermo Fisher Scientific, cat. 17502048), 10 microM Y-27632 dihydrochloride (Tocris Bioscience, cat. 1254), and 50 ng/mL human EGF recombinant protein (Thermo Fisher Scientific, cat. PHG0311). The 485176-168-R4-J1-PDC line was cultured in Panc media, which includes all 6C/Colon 1B media components plus 100 ng/mL human FGF-10 (Thermo Fisher Scientific, cat. 100-26), 500 nM SB-431542 (Selleckchem, cat. S1067), and gastrin (Tocris, cat. 3006).
# […]
# 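Further: spheroids exposed to the agents for seven days before readout.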
# 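Wherever viability, T/C is given: percent of vehicle control viability with DMSO wells as 100%.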
Compound,"viability, T/C (compound 0.0316 µM)","viability, T/C (compound 0.1 µM)","viability, T/C (compound 0.316 µM)","viability, T/C (compound 1 µM)","viability, T/C (compound 3.16 µM)","viability, T/C (compound 10 µM)",IC50 (curve of compound),"viability, T/C (compound 0.000999 µM)","viability, T/C (compound 0.00316 µM)","viability, T/C (compound 0.00999 µM)","viability, T/C (compound 0.0999 µM)","IC50 (compound alone, run of 02/20/2024)","IC50 (compound alone, run of 02/26/2024)"
C#Cc1c(F)ccc2cc(O)cc(-c3ncc4c(N5CC6CCC(C5)N6)nc(OCC56CCCN5CC(F)C6)nc4c3F)c12 (configuration not stated),108% and 99.7% and 99.5%,99.8% and 93.3% and 92.1%,92.1% and 98.2% and 99.7%,80.9% and 54.3% and 80.5%,51.5% and 76.6% and 64.6%,57.3% and 53.5% and 39.1%,> 10000 nM and 6010 nM,–,–,–,–,–,–
C=CC(=O)N1CCN(c2nc(=O)n(-c3c(C)ccnc3C(C)C)c3nc(-c4c(O)cccc4F)c(F)cc23)C(C)C1 (configuration not stated),113% and 111% and 86%,96% and 101% and 88.2%,127% and 125% and 132%,106% (2×) and 75.7%,134% and 124% and 116%,110% and 131% and 101%,> 10000 nM,–,–,–,–,–,–
C=CCn1c(=O)c2cnc(Nc3ccc(N4CCN(C)CC4)cc3)nc2n1-c1cccc(C(C)(C)O)n1,86.6% and 93%,114% and 97.5%,94.4% and 87.1%,74.3% and 105%,70.5% and 77.6%,57.6% and 47%,> 10000 nM and 8920 nM,–,–,–,–,–,–
CC(=O)O[C@H]1C(=O)[C@@]2(C)[C@H]([C@H](OC(=O)c3ccccc3)[C@]3(O)C[C@H](OC(=O)[C@H](O)[C@@H](NC(=O)c4ccccc4)c4ccccc4)C(C)=C1C3(C)C)[C@]1(OC(C)=O)CO[C@@H]1C[C@@H]2O,92.9% and 82.9% and 90.8%,76.1% and 66.3% and 52.6%,68.9% and 81.9% and 51.9%,68.7% and 43.9% and 69.8%,68.5% and 44.5% and 67.8%,65.1% and 53.1% and 63.9%,–,–,–,–,–,–,–
CC(C)(O)C1CCC(Nc2ccc3ncc(-c4cccc(C(F)(F)F)c4)n3n2)CC1 (configuration not stated),60.2%,82%,82.5%,36.3%,9.61%,12.9%,665 nM,–,–,–,–,–,–
CC(C)n1c(=O)n(C)c2cnc3cc(F)c(-c4ccc(OCCCN5CCCCC5)nc4)cc3c21,94.4% and 102%,88% and 71.4%,109% and 113%,81.4% and 57.3%,65.6% and 84.4%,37.7% and 38.4%,5900 nM and 7090 nM,–,–,–,–,–,–
CC1COCCN1c1cc(-c2ccnn2C)c2ccnc(-c3ccn[nH]3)c2n1 (configuration not stated),67.8% and 99.2%,53.6% and 47.4%,52.6% and 55.7%,38.4% and 36.9%,37.2% and 32.5%,20.3% and 19.5%,321 nM and 203 nM,–,–,–,–,–,–
CC1COCCN1c1cc(C2(O)CC3CCC(C2)O3)c2cnn(-c3ccn[nH]3)c2n1 (configuration not stated),85.4% and 89.4%,58.9% and 54.2%,49.8% and 43.1%,29.2% and 27%,26.7% and 20.5%,9.56% and 9.97%,259 nM and 174 nM,–,–,–,–,–,–
CC1COCCN1c1cc(C2(S(C)(=N)=O)CC2)nc(-c2ccnc3[nH]ccc23)n1 (configuration not stated),98.5% and 112% and 88.4%,87.1% and 109% and 69.1%,88.4% and 79.8% and 94%,83.2% and 81.4% (2×),65.6% and 80.9% and 47.6%,51.2% and 79.8% and 42%,> 10000 nM and 2920 nM,–,–,–,–,–,–
CCCS(=O)(=O)Nc1ccc(F)c(C(=O)c2c[nH]c3ncc(-c4ccc(Cl)cc4)cc23)c1F,105% and 95%,69.6% and 103%,118% and 139%,82.9% and 104%,63.1% and 88.8%,14.7% and 13.4%,4250 nM and 5710 nM,–,–,–,–,–,–
CC[C@@]1(O)C(=O)OCc2c1cc1n(c2=O)Cc2cc3c(CN(C)C)c(O)ccc3nc2-1,85.8% and 74.4% and 89.1%,–,59% and 68.4% and 67.3%,–,–,–,> 316 nM,126% and 101% and 118%,61.6% and 94.8% and 94.1%,96.5% and 98.2% and 110%,75.2% and 72.1% and 83.8%,–,–
CCc1c2c(nc3ccc(O)cc13)-c1cc3c(c(=O)n1C2)COC(=O)[C@]3(O)CC,48.6% and 83.2% and 48.7%,–,30.8% and 54.3% and 25.1%,–,–,–,–,92.5% and 68.7% and 82%,48.6% and 84.6% and 53.4%,66.8% and 82.9% and 63.2%,44% and 53.8% and 41.1%,–,–
CN(C)c1ccc(Nc2c3ccc(NC(=O)CCN4CCCC4)cc3nc3cc(NC(=O)CCN4CCCC4)ccc23)cc1,–,–,–,–,63.9% [middle of 11 runs],41.3% [middle of 11 runs],–,–,–,–,–,–,–
COc1cc(C2c3cc4c(cc3C(OC3OC5COC(C)OC5C(O)C3O)C3COC(=O)C23)OCO4)cc(OC)c1O (configuration not stated),118% and 96.2%,67.4% and 93.6%,83.6% and 91.3%,56.6% and 80.2%,62.7% and 78.5%,52.2% and 61.6%,> 10000 nM,–,–,–,–,–,–
COc1ccc([C@@H](O)c2cc(-c3ncnc4cc(N5CCOCC5)ccc34)c(F)cc2Cl)nn1,105% and 99% and 90.9%,69.6% and 82.1% and 74.6%,81.5% and 103% and 90.2%,62.6% and 71.3% and 49.3%,38.6% and 47.8% and 37.7%,30.6% and 31.7% and 25.6%,1930 nM and 2610 nM and 976 nM,–,–,–,–,–,–
COc1cccc2c1C(=O)c1c(O)c3c(c(O)c1C2=O)CC(O)(C(=O)CO)CC3OC1CC(N)C(O)C(C)O1 (configuration not stated),94.1% and 85%,67.5% and 76.3%,74.4% and 44%,37% and 26.8%,2.3% and 1.87%,4.42% and 1.38%,656 nM and 293 nM,–,–,–,–,–,–
COc1ncnc(C2CC2)c1-c1ncc2cnn(Cc3ccc(-c4nc(C(F)(F)F)cn4C(C)C)cc3)c2n1,89.1% and 87.3%,75.2% and 70.5%,85.4% and 92.4%,113% and 83%,96.8% and 88.3%,84.5% and 65.8%,> 10000 nM,–,–,–,–,–,–
Cc1[nH]c2ccc(F)cc2c1-c1nc2c3cccnc3c3ncccc3c2[nH]1,99.6% [middle of 8 runs],–,–,–,30.2% [middle of 8 runs],24.5% [middle of 8 runs],–,–,–,–,–,1.81 µM [middle of 4 runs],1110 nM and 949 nM and 3310 nM
Cc1[nH]c2ccccc2c1CCNCc1ccc(/C=C/C(=O)NO)cc1,78.2% and 87.4%,–,7.05% and 6.56%,–,–,–,69 nM and 100 nM,95.4% and 104%,69.8% and 120%,57.5% and 73.5%,38% and 48.4%,–,–
Cc1cccc(N(C)C(=O)C2C(O)CCN2c2nc(C)cc(C(F)(F)F)c2C#N)c1 (configuration not stated),102% and 105% and 116%,94.8% and 106% and 102%,138% and 103% and 89.8%,106% and 93.5% and 114%,100% and 89.1% and 85.5%,122% and 94.3% and 84%,> 10000 nM,–,–,–,–,–,–
Cc1cnc(CNC(=O)c2c(=O)c3ccc(N4CCCN(C)CC4)nc3n3c2sc2ccccc23)cn1,74.8% [middle of 10 runs],64.1% [middle of 10 runs],57.7% [middle of 10 runs],46.2% [middle of 10 runs],9.54% [middle of 10 runs],0.19% [middle of 7 runs],–,–,–,–,–,–,–
Cn1ncnc1[C@H]1c2n[nH]c(=O)c3cc(F)cc(c23)N[C@@H]1c1ccc(F)cc1,71.5% and 116% and 74.2%,–,81.1% and 72% and 81.4%,–,–,–,> 316 nM,129% and 93.2% and 109%,91% and 87% and 106%,114% and 98% and 124%,101% and 65.9% and 81.1%,–,–
Nc1ccn(C2OC(CO)C(O)C2(F)F)c(=O)n1 (configuration not stated),54.8% and 88.1% and 71.3%,48.5% and 89.5% and 58.6%,54.9% and 84.8% and 61.3%,51.8% and 98.2% and 50.4%,58.7% and 76.3% and 69.7%,51.3% and 66.3% and 51.9%,> 10000 nM,–,–,–,–,–,–
O=C(NO)c1cnc(N2CCN(S(=O)(=O)c3ccc4ccccc4c3)CC2)nc1,97.4%,68.3%,52.4%,35.2%,0.38%,0.16%,318 nM,–,–,–,–,–,–
O=C(c1cc(Cc2n[nH]c(=O)c3ccccc23)ccc1F)N1CCN(C(=O)C2CC2)CC1,104% and 96%,101% and 90.4%,80.2% and 95.2%,98.7% and 88.8%,82.4% and 119%,71.2% and 80.3%,> 10000 nM,–,–,–,–,–,–
O=c1[nH]cc(F)c(=O)[nH]1,88.6% and 164% and 121%,71.2% and 82.5% and 101%,83% and 89.5% and 119%,61.4% and 63.8% and 109%,63.2% and 95% and 99.5%,63.7% and 75% and 70.3%,> 10000 nM,–,–,–,–,–,–
